Data: publication PMC9103625, “The Role of the Nucleotides in the Insertion of the bis-Molybdopterin Guanine Dinucleotide Cofactor into apo-Molybdoenzymes” (Molecules, 2022)

Assays:
MobA = molecular target: T1, MobA (Escherichia coli, UniProt P32173); test: conversion to bis-MGD, HPLC of FormA-GMP; type: biochemical; conditions: 3 µM MobA, 1 mM GTP, 1 mM MgCl2, 5 min, room temperature, bis-Mo-MPT from 30 µM YdhV
T1 construct: from plasmid pCT800A, Ni-NTA and size exclusion purified; monomer
T1 sequence (P32173 1-194): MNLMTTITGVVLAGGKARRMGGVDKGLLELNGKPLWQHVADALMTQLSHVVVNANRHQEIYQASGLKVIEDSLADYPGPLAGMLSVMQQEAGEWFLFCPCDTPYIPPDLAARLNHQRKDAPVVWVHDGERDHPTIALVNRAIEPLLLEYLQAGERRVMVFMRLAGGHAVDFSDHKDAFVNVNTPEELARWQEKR

apo-TorA = molecular target: T2, apo-TorA (Escherichia coli, UniProt P33225); test: in vitro reconstitution, gel filtration, HPLC of FormA-GMP; type: binding; conditions: 1.3 µM apo-TorA, bis-MGD extracted from wtTorA, saturation at 25 µM donor, 7 h, 37 °C, pH 7.2, anaerobic
T2 construct: from plasmid pJF119EH, Ni-NTA and size exclusion purified; cofactor-free apo-enzyme reconstituted in vitro
T2 sequence (P33225 40-848): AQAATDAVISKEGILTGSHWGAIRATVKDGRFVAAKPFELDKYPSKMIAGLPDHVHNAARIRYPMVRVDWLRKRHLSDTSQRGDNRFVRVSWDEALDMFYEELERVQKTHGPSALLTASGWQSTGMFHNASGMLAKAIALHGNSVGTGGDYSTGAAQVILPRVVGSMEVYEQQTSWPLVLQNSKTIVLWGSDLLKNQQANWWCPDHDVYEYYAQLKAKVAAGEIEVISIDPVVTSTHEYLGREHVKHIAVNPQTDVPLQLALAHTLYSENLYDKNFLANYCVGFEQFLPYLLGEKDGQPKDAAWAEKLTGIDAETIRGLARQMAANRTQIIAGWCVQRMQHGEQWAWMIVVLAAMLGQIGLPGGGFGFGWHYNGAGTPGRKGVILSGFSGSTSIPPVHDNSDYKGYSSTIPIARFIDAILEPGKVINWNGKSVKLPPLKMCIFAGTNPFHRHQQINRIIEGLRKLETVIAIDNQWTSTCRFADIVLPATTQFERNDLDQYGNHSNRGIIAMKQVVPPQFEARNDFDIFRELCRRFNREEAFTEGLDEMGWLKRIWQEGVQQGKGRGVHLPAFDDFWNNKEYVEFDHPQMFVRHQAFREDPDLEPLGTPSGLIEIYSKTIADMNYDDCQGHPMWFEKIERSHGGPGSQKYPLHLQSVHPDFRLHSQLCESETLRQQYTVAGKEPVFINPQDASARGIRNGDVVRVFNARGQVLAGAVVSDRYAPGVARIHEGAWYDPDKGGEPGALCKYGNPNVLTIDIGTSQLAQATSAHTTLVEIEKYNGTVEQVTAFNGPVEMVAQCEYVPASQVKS

apo-YdhV = molecular target: T3, apo-YdhV (Escherichia coli, UniProt P76192); test: in vitro reconstitution, gel filtration, HPLC of dephospho-FormA; type: binding; conditions: 1.3 µM apo-YdhV, 7 h, 37 °C, pH 7.2, anaerobic, cofactor from alkaline phosphatase treatment
T3 construct: from plasmid SR153, expressed in E. coli RK5200, Ni-NTA and size exclusion purified; cofactor-free apo-protein
T3 sequence (P76192 1-700): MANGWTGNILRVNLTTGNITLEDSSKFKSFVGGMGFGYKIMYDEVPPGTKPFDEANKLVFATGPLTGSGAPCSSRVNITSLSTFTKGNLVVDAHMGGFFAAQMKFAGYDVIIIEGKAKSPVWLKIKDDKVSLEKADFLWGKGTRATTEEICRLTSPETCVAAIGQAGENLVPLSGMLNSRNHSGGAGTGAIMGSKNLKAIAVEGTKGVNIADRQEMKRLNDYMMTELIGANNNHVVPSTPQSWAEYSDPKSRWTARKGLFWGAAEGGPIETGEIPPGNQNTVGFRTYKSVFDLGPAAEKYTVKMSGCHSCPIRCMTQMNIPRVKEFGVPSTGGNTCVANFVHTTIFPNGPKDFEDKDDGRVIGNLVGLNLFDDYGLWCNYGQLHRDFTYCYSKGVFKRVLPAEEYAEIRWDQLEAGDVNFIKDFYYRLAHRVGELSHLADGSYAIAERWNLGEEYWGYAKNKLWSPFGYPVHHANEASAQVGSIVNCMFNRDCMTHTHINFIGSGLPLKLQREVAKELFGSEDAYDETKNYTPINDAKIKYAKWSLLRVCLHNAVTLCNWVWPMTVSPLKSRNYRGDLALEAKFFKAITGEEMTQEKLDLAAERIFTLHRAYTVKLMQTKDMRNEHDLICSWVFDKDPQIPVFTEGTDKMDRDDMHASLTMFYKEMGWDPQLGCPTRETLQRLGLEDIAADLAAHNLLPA

`Nc1nc2c(ncn2[C@@H]2O[C@H](COP(=O)(O)OP(=O)(O)OP(=O)(O)O)[C@@H](O)[C@H]2O)c(=O)[nH]1` [GTP] was tested, and the “conversion to bis-MGD, HPLC of FormA-GMP” value (MobA) was “we converted bis-Mo-MPT into bis-MGD by the attachment of nucleotides using MobA and Mg-GTP”.
In the case of `Nc1nc2c(c(=O)[nH]1)N[C@H]1C([S-])=C([S-])[C@@H](COP(=O)([O-])OP(=O)([O-])OC[C@H]3O[C@@H](n4cnc5c(=O)[nH]c(N)nc54)[C@H](O)[C@@H]3O)O[C@H]1N2.Nc1nc2c(c(=O)[nH]1)N[C@H]1C([S-])=C([S-])[C@@H](COP(=O)([O-])OP(=O)([O-])OC[C@H]3O[C@@H](n4cnc5c(=O)[nH]c(N)nc54)[C@H](O)[C@@H]3O)O[C@H]1N2.[O]=[Mo+4]` [bis-MGD], the “% bis-MGD saturation (maximum)” value (apo-TorA) is reported as 61.9%.
With dephospho-bis-Mo-MPT the “% bound at 100 μM donor” value (apo-YdhV) was 25.1%.
